Experimental findings from patent US20150126464A1, “THERAPEUTIC DRUG AND THERAPEUTIC METHOD FOR NEUROLOGICAL DISEASES INCLUDING ALZHEIMER'S DISEASE ASSOCIATED WITH 1,25D3-MARRS” (priority 2013, published 2015) are described below.

The experiment has as its system normal mice. The experiment can be described thus: Object recognition memory under continuous administration of 1,25D3-MARRS neutralizing antibody. It is filed as in vivo, mouse. To be noted: normal ddY mice, diosgenin i.p. As for the experimental part:
To neutralize the 1,25D3-MARRS function of normal mice (ddY mice, male, 6 weeks old), a polyclonal antibody specific to 1,25D3-MARRS, i.e., Ab099 clone, was intraventricularly administered in a continuous manner. Ab099 diluted in ACSF (artificial cerebrospinal fluid) was charged into a micro osmotic pump (model: 1007D, Alzet, Cupertino, Calif., USA) and a brain infusion kit 3 (Alzet). The dilution rate of Ab099 was determined depending on the cerebrospinal fluid (CSF) volume and the inflow velocity so that the concentration would be sufficient for Ab099 to act as a neutralizing antibody in CSF. Using stereotaxic apparatus, a brain infusion cannula (brain infusion kit) was inserted into the right ventricle of each mouse anesthetized beforehand (anterior/posterior: −0.22 mm posterior from bregma, medial/lateral: +1.0 mm, dorsal/ventral: −2.5 mm below surface). The entire cannula insertion site was covered with Loctite 454 (Alzet). The pump was subcutaneously implanted in the back of the mouse. The incision in the skin was sutured.
After the start of continuous antibody administration, the intraperitoneal administration of diosgenin was initiated. After 5-day administration of diosgenin, the object recognition memory training was initiated. The next day, the last administration of diosgenin was performed. The test session was initiated 48 hours after the start of the training session. […]

On to `C[C@@H]1CC[C@@]2(OC1)O[C@H]1C[C@H]3[C@@H]4CC=C5C[C@@H](O)CC[C@]5(C)[C@H]4CC[C@]3(C)[C@H]1[C@@H]2C` [diosgenin], for which the “preferential index, mice treated with ACSF and diosgenin” value (ACSF intraventricular, test 48 hours after training) was “significantly improved”. Also, the “memory improvement attributable to diosgenin in mice given 1,25D3-MARRS neutralizing antibody” value (Ab099 clone intraventricular continuous) was “completely offset”.
